The values below come from publication PMC9589286, “Ruthenium polypyridine complexes with triphenylamine groups as antibacterial agents against Staphylococcus aureus with membrane-disruptive mechanism” (Frontiers in Chemistry, 2022).

One may read the MIC as the lowest concentration that inhibits growth of the organism. Read a high MIC as a need for much substance.

Converted amounts (≈) assume the structure as drawn.

In one data set the test system is Galleria mellonella. Kind of data set: Toxicity in insect model Galleria mellonella. It counts as in vivo. The settings on record: larvae, 120 h. Here is the method: Based on the excellent antibacterial effect of Ru-3 in vitro, its biosafety was further evaluated. Firstly, the hemolytic activity of ruthenium complexes on rabbit red blood cells was measured to study their toxicity. […] In view of its good compatibility with mammalian red blood cells, the toxicity of Ru-3 to eukaryotes was also studied. Herein, Ru-3 was tested with Gallery melonella larvae. […] When the concentration of Ru-3 was 64 mg kg^−1, the survival rate was still 75%.
FIGURE 15 Test results of Ru compounds toxicity (A) % hemolysis at 256 μg ml^−1 of Ru compounds. (B) Kaplan-Meier survival curves. […] The larvae were incubated at 37.5°C and live/dead scores were conducted at 120 h (C) H&E staining images of the infected tissues with different treatments.

Data set [1] relates to Staphylococcus aureus. Briefly: Drug resistance study, 20 generations at sub inhibitory concentration. It is filed as cell-based. The settings on record: 20 passages at sublethal concentration. The procedure:
After Staphylococcus aureus was cultured for 5 h, the bacteria were diluted 1000 times with fresh TSB and the MIC of Ru-3 was measured. The bacterial solution grown at the sub inhibitory concentration of compound Ru-3 was inoculated into fresh TSB medium for 5 h, then the MIC was measured, and the above procedure was repeated for 20 generations. Ampicillin was used as the control.

In data set [2] the test system is Staphylococcus aureus. Kind of data set: Checkerboard assay with antibiotics. The settings on record: for MIC of antibiotics: antibiotic alone, S. aureus; for FICI: combination of the antibiotic with Ru-3, S. aureus. It counts as cell-based. Here is the method:
Firstly, the MIC of all selected antibiotics was determined by the above method. Staphylococcus aureus was cultured overnight and diluted 1000 times with fresh TSB. Then 200 μL the diluted bacterial suspension, 25 μL Ru-3 of gradient concentrations and 25 μL antibiotics of gradient concentrations were mixed in 96 well plates and further cultured at 37°C for 20 h. MIC values of single drug and the best combination effect (combination of MICA and MICB) were measured. Graphpad prism software was used to draw the checkerboard map and isoline map.

Data set [3] has as its system Staphylococcus aureus. Kind of data set: MIC by microdilution in TSB broth. It counts as cell-based. The settings on record: 20 h. The procedure:
Antibacterial activity was evaluated by measuring MIC (minimum inhibitory concentration) and MBC (minimum bactericidal concentration) values. The MIC value was measured by the microdilution method using TSB broth with 96 well plates ([Carlsen et al., 1981]) and the MBC value was determined by LB plates. In brief, the overnight cultured bacteria were 1: 1000 diluted with fresh medium to get a bacterial suspension. After incubation at 37°C for 20 h, the growth of bacteria is monitored by observing the turbidity of the culture. The bacterial solution was diluted as above method and the complexes were incubated with bacterial solution for 2 h. Then 100 μL bacterial solution was taken for plate coating. The Staphylococcus aureus growth inhibition trend in the presence of complexes was obtained. The MBC values of complexes were determined by LB plates after culturing in the same method for 24 h. All experiments were controlled with sterile water and repeated in parallel at least three times.
In general terms: Broth dilution looks for growth in wells or tubes with falling amounts of substance.

Data set [4] concerns Staphylococcus aureus. Briefly: Nucleic acid leakage, 260 nm absorbing material. It is filed as cell-based. The settings on record: 100 μg/ml, 2 h. The procedure:
To verify the membrane damage, the loss of 260 nm absorbing material was carried out ([Yu et al., 2021]). Briefly, overnight cultured bacteria were diluted 1:1000 in fresh TSB and shaken at 37°C for about 5 h until the exponential stage was reached. The supernatant was removed by centrifugation, then the bacteria were resuspended to OD600 = 1 with PBS, which was further treated with Ru-3 or polymyxin B and centrifuged after 2 h to precipitate bacterial cells. Subsequently, the loss of 260 nm absorbing material, including the release of DNA and RNA in the filtrate, was measured at 260 nm.

Data set [5] in a line: Partition coefficient, shake flask 1-octanol/PBS. It is filed as physicochemical. Here is the method: The partition coefficients of all complexes were determined by standard shake flask method in 1-octanol and buffer liquid system ([Yang et al., 2021]). In brief, the octanol/water partition coefficient is obtained by the incubation of 2 ml of 25 μg ml^−1 ruthenium complex 1-octanol and 2 ml PBS samples. After shaking the solution for 6 h, the samples were stood for 2 h. The absorbance of octanol complex at 282 nm before and after oscillation was measured. The absorbance of 1-octanol before oscillation minus the absorbance of 1-octanol after oscillation is the absorbance of the complex in water. Each experiment was repeated three times. The partition coefficient is reported as the number of octanol divided by the number of water.

The subject of the next data set is rabbit red blood cells. Briefly: Hemolytic activity on rabbit red blood cells. It counts as cell-based. The settings on record: 37°C, 30 min. Here is the method: Obtain red blood cells from fresh sterile rabbit blood and rabbit blood was washed three times with PBS. Ru(II) complexes in 950 µL phosphoric acid buffer (PBS) of different concentrations and 50 μL red blood cells were added into a 1.5 ml sample tube, incubated at 37°C for 30 min. The negative control was red blood cell suspension containing only PBS, and the positive control was PBS containing 0.1% (V/V) Triton X-100. After incubating the mixture was centrifugated (2000 rpm for 2 min) and the supernatant (200 μL) was transfered to another 96 well plate. Finally, the hemolysis rate was calculated by measuring the absorbance at 540 nm.

`CC1(C)S[C@@H]2[C@H](NC(=O)[C@H](N)c3ccccc3)C(=O)N2[C@H]1C(=O)O` [Ampicillin, reference compound]: the Kaplan-Meier survival curve entry in the data set with Galleria mellonella is reported as “coincides with control’s curve”. The “increase of MIC value after 20 generations” value in the data set with Staphylococcus aureus [1] is listed as “more than 1024 times”. For the same compound, in the data set with Staphylococcus aureus [2], the MIC of antibiotics was 0.39 µg/mL and the FICI was determined as 0.38.

With `O=C(N[C@H](CO)[C@H](O)c1ccc([N+](=O)[O-])cc1)C(Cl)Cl` [Chloramphenicol], in the data set on Staphylococcus aureus [2], the MIC of antibiotics was 6.25 µg/mL and the FICI was 0.50.

`CNC(C)C1CCC(N)C(OC2C(N)CC(N)C(OC3OCC(C)(O)C(NC)C3O)C2O)O1` (centres unmarked) [Gentamicin]: in the data set on Staphylococcus aureus [2], the MIC of antibiotics stood at 6.25 µg/mL and the FICI was 0.38.

As for `NC[C@H]1O[C@H](O[C@H]2[C@H](O)[C@@H](O[C@H]3O[C@H](CO)[C@@H](O)[C@H](N)[C@H]3O)[C@H](N)C[C@@H]2N)[C@H](O)[C@@H](O)[C@@H]1O` [Kanamycin], in the data set with Staphylococcus aureus [2], the MIC of antibiotics came out at 50.00 µg/mL and the FICI amounted to 0.38.

`Cc1ccc(N(c2ccc(C)cc2)c2ccc(-c3nc4c5cccnc5c5ncccc5c4[nH]3)cc2)cc1` [PMA]: the MIC in the data set on Staphylococcus aureus [3] (S. aureus, 37°C) is recorded as greater than 256 µg/mL.

`O.O.O.[Cl][Ru]([Cl])[Cl]` [RuCl3∙3H2O]: the MIC in the data set on Staphylococcus aureus [3] (S. aureus, 37°C) is on record as greater than 256 µg/mL.

With `CN(C)[C@@H]1C(O)=C(C(N)=O)C(=O)[C@@]2(O)C(O)=C3C(=O)c4c(O)cccc4[C@@](C)(O)[C@H]3C[C@@H]12` [Tetracycline], in the data set on Staphylococcus aureus [2], the MIC of antibiotics turned out to be 0.39 µg/mL and the FICI is on record as 0.50.

With `CN[C@H](CC(C)C)C(=O)N[C@H]1C(=O)N[C@@H](CC(N)=O)C(=O)N[C@H]2C(=O)N[C@H]3C(=O)N[C@H](C(=O)N[C@H](C(=O)O)c4cc(O)cc(O)c4-c4cc3ccc4O)[C@H](O)c3ccc(c(Cl)c3)Oc3cc2cc(c3O[C@@H]2O[C@H](CO)[C@@H](O)[C@H](O)[C@H]2O[C@H]2C[C@](C)(N)[C@H](O)[C@H](C)O2)Oc2ccc(cc2Cl)[C@H]1O` [Vancomycin], in the data set on Staphylococcus aureus [3] (Staphylococcus aureus), the MIC stood at 2 µg/mL (≈ 1.38 µM). Moreover, in the data set on Staphylococcus aureus [2], the MIC of antibiotics turned out to be 2 µg/mL and the FICI is 1.00.

With Polymyxin B [reference compound], the “Δ% Nucleic acid leakage” value in the data set on Staphylococcus aureus [4] stood at 23%.

Take [Ru(bpy)2PMA] (PF6)2 [Ru-2]: in data set [5], the LgP turned out to be 0.97 and the logD o/w result is “ca. 0.9681”. In the data set with Staphylococcus aureus [3] (S. aureus, 37°C), this compound gave an MIC of 8 µg/mL. Further, the “% Hemolysis at 256 μg/ml” value with rabbit red blood cells turned out to be 16%.

[Ru(dmob)2PMA] (PF6)2 [Ru-1]: in data set [5], the LgP is 1.14 and the logD o/w entry is recorded as “ca. 1.1445”. Further, the MIC with Staphylococcus aureus [3] (S. aureus, 37°C) was 16 µg/mL. For the same compound, the “% Hemolysis at 256 μg/ml” value with rabbit red blood cells amounted to 8%.
